The values that follow come from patent publication US9562053B2, “Benzo-fused heterocyclic derivatives useful as agonists of GPR120” (Janssen Pharmaceutica NV, priority 2013, dated 2017).

The target in the assay is T1, Human GPR120 short form (Homo sapiens, UniProt Q5NUL3).
T1 construct: expressed in transfected cells
T1 sequence (Q5NUL3 1-361): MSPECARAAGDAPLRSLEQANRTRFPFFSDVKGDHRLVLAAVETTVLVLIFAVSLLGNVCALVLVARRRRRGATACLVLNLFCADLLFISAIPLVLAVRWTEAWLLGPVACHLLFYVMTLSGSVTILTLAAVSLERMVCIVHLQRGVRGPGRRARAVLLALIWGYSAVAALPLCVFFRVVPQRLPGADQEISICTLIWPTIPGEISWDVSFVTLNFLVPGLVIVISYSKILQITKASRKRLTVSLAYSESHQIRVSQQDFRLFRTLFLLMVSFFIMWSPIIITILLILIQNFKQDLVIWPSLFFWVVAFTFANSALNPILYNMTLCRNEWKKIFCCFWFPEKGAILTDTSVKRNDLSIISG
Briefly: Human GPR120 in Calcium Flux Assay, Procedure Calcium A (2500 cells/well). It is filed as cell-based. From the text: This in vitro assay serves to assess test compound agonist activity against the short splice variant (SVS with Accession number NM_001195755.1 confirmed by sequencing data) of the GPR120 receptor. The Human Short splice variant #2 (NM_001195755.1) is missing an in-frame coding exon compared to variant 1 (the Human Long splice variant NM_181745.3), resulting in a shorter isoform (GPR120-S) lacking a 16 aa protein segment compared to isoform GPR120-L. The assay platform utilizes HEK-293 cells stably transfected to express the Human GPR120 short form. These cells are first loaded with the Ca^+2 sensitive dye, Fluo-4 NW. Upon stimulation, intracellular released Ca^+2 can bind to the dye and alter its fluorescence intensity. This increase in fluorescence signal, and thus the flux in intracellular [Ca^+2], is detected and quantitated by fluorescence imaging using a FLIPR reader. The effect of the agonist is measured as a function of concentration and used to calculate an EC50 based upon a response curve.
In this procedure 2500 cells/well were employed.
A Human GPR120 clone (Genbank accession number NM_001195755.1) was placed into the pcDNA3.1 mammalian expression vector carrying the neomycin resistance gene. A stable mammalian cell was generated by placing the above clone into a HEK293 background. Clonal cells responding to long chain fatty acids had expression levels of GPR120 confirmed by RT-qPCR. Human HEK-GPR120 cells were cultured in Dulbecco's Modified Eagle's Medium (DMEM)/F12 medium supplemented with 10% fetal bovine serum (FBS), 1% L-Glutamine and 1% penicillin/streptomycin and 0.5 mg/ml G-418. Cells were split 2 times a week to keep the cells in the log-phase growth.
In preparation for the assay, HEK cells stably transfected with Human GPR120 (2.5K cells per well in 25 uL growth medium) were seeded into 384-well plates and then incubated overnight (37° C., 5% CO2). The next day, the media was changed to 20 μl assay buffer and the cell starved for 1 h at 37° C. The dye loading solution (2× dye) was prepared using 10 ml assay buffer, 100 μl of 250 mM probenecid, 1 bottle of Component A, and 20 μl of dye in DMSO. Twenty μl of the 2× dye loading buffer was then added to each well. The plates were incubated at 37° C. for 30 min, then at room temperature for an additional 15 minutes, before performing the assay on FLIPR.
Test compounds were prepared in assay buffer (2 μl of test compound+198 μl assay buffer, final DMSO in assay plate is 0.2%) at the desired concentration, more particularly at 100 μM, 50 μM, 25 μM, 12.5 μM, 6.25 μM, 3.125 μM, 1.562 μM, 0.781 μM, 0.391 μM, 0.195 μM, 0.098 μM, 0.049 μM, 0.024 μM and 0.012 μM.
The assay was performed on a FLIPR plate reader using the following parameters. Baseline was read for 10 seconds at 1 sec intervals. The program was set to transfer 10 μL of ligand from compound plate to cell plate after baseline reading. Aspiration was executed at: 10 μl/sec speed, 4.6 μl height; Dispensing was executed at: 30 μl/sec speed, 45 μl height. After compound addition, each well was read for 300 sec, with measurements collected at 1 sec intervals.
The kinetic data from the FLIPR was based upon a 5 minute window for data collection. The fluorescence of each sample well was used for individual calculations of a normalized RFU value, which was defined as maximum response minus the minimum response. The normalized fluorescence reading (RFU) was calculated as follows: RFU=Fmax−Fmin
The data were fitted to a sigmoidal dose-response curve with a variable Hill slope (<2) using nonlinear regression with GraphPad Prism 5.0 to calculate the EC50 values. The Fitting Equation was: Y=Bottom+(Top−Bottom)/(1+10^((LogEC50−X)*HillSlope)), where X is the log of the concentration and Y is the response.
(Calcium flux is commonly read through the fluorescence of an indicator in the cells.)
In the case of `COCCc1cc2cc(F)cc(COc3ccc(CCC(=O)O)c(C)c3C)c2o1` [Compound 10, 3-(4-{[5-Fluoro-2-(2-methoxyethyl)-1-benzofuran-7-yl]methoxy}-2,3-dimethylphenyl)propanoic acid], the 50% effective concentration (EC50) (in general, the midpoint of the concentration-response curve) is 424 nM. In the case of `Cc1cc2cc(CCCS(C)(=O)=O)cc(COc3ccc(CCC(=O)O)c(C)c3C)c2o1` [Compound 100, 3-[2,3-Dimethyl-4-({2-methyl-5-[3-(methylsulfonyl)propyl]-1-benzofuran-7-yl}methoxy)phenyl]propanoic acid], the EC50 was greater than 5000 nM.

With `Cc1c(CCC(=O)O)ccc(OCc2cc(F)cc3cc(CC4CCCC4)oc23)c1C` [Compound 19, 3-(4-{[2-(Cyclopentylmethyl)-5-fluoro-1-benzofuran-7-yl]methoxy}-2,3-dimethylphenyl)propanoic acid], the EC50 stood at 1680 nM. For `Cc1cc2c(COc3ccc(CCC(=O)O)c(C)c3C)cc(Cl)cc2s1` [Compound 101, 3-{4-[(6-Chloro-2-methyl-1-benzothiophen-4-yl)methoxy]-2,3-dimethylphenyl}propanoic acid] the value was 3200 nM; for `CCc1cc2cc(F)cc(COc3cc(C)c(CCC(=O)O)cn3)c2o1` [Compound 33, 3-{6-[(2-Ethyl-5-fluoro-1-benzofuran-7-yl)methoxy]-4-methylpyridin-3-yl}propanoic acid], 1110 nM. `Cc1nc2c(COc3ccc(CCC(=O)O)c(C)c3C)cc(Cl)cc2o1` [Compound 95, 3-{4-[(6-Chloro-2-methyl-1,3-benzoxazol-4-yl)methoxy]-2,3-dimethylphenyl}propanoic acid]: the EC50 came to 134 nM. With `CCc1cc2cc(C#N)cc(COc3ccc(CCC(=O)O)c(C)c3C)c2o1` [Compound 123, 3-(4-((5-cyano-2-ethylbenzofuran-7-yl)methoxy)-2,3-dimethylphenyl)propanoic acid], the concentration giving a half-maximal response (EC50) came out at 1410 nM.

As for `Cc1c(CCC(=O)O)ccc(OCc2cc(F)cc3cc(CO)oc23)c1C` [Compound 14, 3-(4-{[5-Fluoro-2-(hydroxymethyl)-1-benzofuran-7-yl]methoxy}-2,3-dimethylphenyl)propanoic acid], the EC50 amounted to 1320 nM. Regarding `Cc1oc2c(COc3c(Br)cc(CCC(=O)O)c(C)c3C)cc(OC(F)(F)F)cc2c1Br` [Compound 120, 3-(5-Bromo-4-{[3-bromo-2-methyl-5-(trifluoromethoxy)-1-benzofuran-7-yl]methoxy}-2,3-dimethylphenyl)propanoic acid], the 50% effective concentration (EC50) came out at 1540 nM.

`CCCc1cc2cc(Cl)cc(COc3cc(C)c(CCC(=O)O)cn3)c2o1` [Compound 34, 3-{6-[(5-Chloro-2-propyl-1-benzofuran-7-yl)methoxy]-4-methylpyridin-3-yl}propanoic acid]: the concentration for a half-maximal effect (EC50) came to 1020 nM. Take `CCc1cc2cc3c(c(COc4ccc(CCC(=O)O)c(C)c4C)c2o1)CC(C)(C)O3` [Compound 30, 3-{4-[(6-Ethyl-2,2-dimethyl-2,3-dihydrobenzo[1,2-b:4,5-b′]difuran-4-yl)methoxy]-2,3-dimethylphenyl}propanoic acid]: the EC50 was 759 nM.

For the compound `Cc1c(CCC(=O)O)ccc(OCc2cc(OC(F)(F)F)cc3cc(CCO)oc23)c1C` [Compound 94, 3-(4-{[2-(2-Hydroxyethyl)-5-(trifluoromethoxy)-1-benzofuran-7-yl]methoxy}-2,3-dimethylphenyl)propanoic acid], the EC50 is 274 nM. On to `Cc1c(CCC(=O)O)ccc(OCc2cc(F)cc3cc(CCC(C)C)oc23)c1C` [Compound 9, 3-(4-{[5-Fluoro-2-(3-methylbutyl)-1-benzofuran-7-yl]methoxy}-2,3-dimethylphenyl)propanoic acid], for which the 50% effective concentration (EC50) was found to be 2750 nM. Regarding `CCc1cc2cc(OC(F)(F)F)cc(COc3cc(CCC(C)C)c(CCC(=O)O)cc3F)c2o1` [Compound 51, 3-[4-{[2-Ethyl-5-(trifluoromethoxy)-1-benzofuran-7-yl]methoxy}-5-fluoro-2-(3-methylbutyl)phenyl]propanoic acid], the EC50 was determined as 392 nM. On to `CCc1cc2cc(OC(F)(F)F)cc(COc3cc(CC(C)C)c(CCC(=O)O)cc3F)c2o1` [Compound 53, 3-[4-{[2-Ethyl-5-(trifluoromethoxy)-1-benzofuran-7-yl]methoxy}-5-fluoro-2-(2-methylpropyl)phenyl]propanoic acid], for which the EC50 came out at 673 nM. Consider `Cc1c(CCC(=O)O)ccc(OCc2cc(F)cc3cc(CCO)oc23)c1C` [Compound 15, 3-(4-{[5-Fluoro-2-(2-hydroxyethyl)-1-benzofuran-7-yl]methoxy}-2,3-dimethylphenyl)propanoic acid], for which the concentration for a half-maximal effect (EC50) came out at 4750 nM.

Take `C#Cc1cc(COc2ccc(CCC(=O)O)c(C)c2C)c2oc(CCC)cc2c1` [Compound 38, 3-{4-[(5-Ethynyl-2-propyl-1-benzofuran-7-yl)methoxy]-2,3-dimethylphenyl}propanoic acid]: the EC50 came out at 28 nM. For `Cc1cc2cc(Cl)cc(COc3c(F)cc(CCC(=O)O)cc3F)c2s1` [Compound 92, 3-{4-[(5-Chloro-2-methyl-1-benzothiophen-7-yl)methoxy]-3,5-difluorophenyl}propanoic acid], the EC50 worked out at 417 nM. Then `Cc1cc2cc(C#CCS(C)(=O)=O)cc(COc3ccc(CCC(=O)O)c(C)c3C)c2o1` [Compound 99, 3-[2,3-Dimethyl-4-({2-methyl-5-[3-(methylsulfonyl)prop-1-yn-1-yl]-1-benzofuran-7-yl}methoxy)phenyl]propanoic acid], with greater than 5000 nM; and `Cc1c(CCC(=O)O)ccc(OCc2cc(F)cc3cc(Cc4ccccc4)oc23)c1C` [Compound 20, 3-{4-[(2-Benzyl-5-fluoro-1-benzofuran-7-yl)methoxy]-2,3-dimethylphenyl}propanoic acid], with 5290 nM; and `Cc1cc2c(COc3c(F)cc(CCC(=O)O)cc3F)cc(Cl)cc2s1` [Compound 102, 3-{4-[(6-Chloro-2-methyl-1-benzothiophen-4-yl)methoxy]-3,5-difluorophenyl}propanoic acid], with greater than 5000 nM. Then `Cc1cc2c(COc3c(F)cc(CCCO)cc3F)cc(Cl)cc2s1` [Compound 103, 3-{4-[(6-Chloro-2-methyl-1-benzothiophen-4-yl)methoxy]-3,5-difluorophenyl}propan-1-ol], with 3000 nM.
